Test results reported in patent US20250222119A1, “ENGINEERING OF MULTIFUNCTIONAL PEPTIDES FOR CONTROLLED DRUG DELIVERY” (The Johns Hopkins University, priority 2022, published 2025).

Legend:
[1] = test system: normotensive Dutch Belted rabbits; assay: Rabbit IOP measurements after intracameral injection or topical dosing; assay type: in vivo; conditions: single intracameral injection
Procedure: For the ICM injection procedure, rabbits were anesthetized with ketamine/xylazine and received topical anesthesia with 0.5% proparacaine hydrochloride. […] After the procedure, topical bacitracin-neomycin-polymyxin ophthalmic ointment was applied to both eyes to prevent infection and dry eyes. […] The IOP were measured immediately before the topical dosing (0 h), and at 2, 4, 6 and 8 h after the eyedrop administration.

ARPE-19 cells = assay: Cell-penetration assay with biotinylated peptides in induced and non-induced ARPE-19 cells; assay type: cell-based; conditions: C-terminal biotinylated peptide 100 μM, 6 h, 37° C.
Procedure: Four 96 well plates per group were seeded at 0.01×10^6 cells/well. ARPE-19 cells were either cultured with DMEM:F12 medium containing 10% FBS according to protocol provided by the vendor (non-induced) or cultured in DMEM high glucose, pyruvate media with […] of ferric ammonium citrate (Wolkow, N. et al., Exp Eye Res 128, 92-101, (2014)) for 2 months (induced) (Kim, Y. C. et al. Drug Deliv Transl Res, doi:10.1007/s13346-021-00987-6 (2021)). The expression of melanin was confirmed visually with bright field microscopy and by measuring absorbance at 475 nm (>0.4 a.u., not shown). Within each plate, 12 wells were randomly selected to quantify the cell numbers with an automated cell counter (Countess 3 Automated Cell Counter, Thermo Fisher) for normalization in the cell uptake study. Next, 100 μL (100 μM in pH 6.5 PBS) of each of the 127 C-terminal biotinylated peptides was added to n=3 wells for both the induced and non-induced ARPE-19 cells for 6 h at 37° C. The cells were then washed thoroughly 5 times with PBS solution to remove extracellular peptide. To quantify cell-associated peptides, the cells were lysed with 100 μL of RIPA lysis buffer at 4 C for 48 h. […] The mean intracellular concentration values were grouped by cell types (induced or non-induced), and the two-sample Wilcoxon test (Mann-Whitney) was calculated using the R function wilcox.test. Intracellular concentration values were also plotted against experimental melanin binding and the relationship was quantified using a simple linear model and its corresponding R^2.
It was next characterized how the predicted cell-penetrating properties of the peptides affected cell uptake in a retinal pigment epithelium (RPE) cell line (ARPE-19). ARPE-19 cells were cultured using standard methods (non-induced, n=3) and using culture conditions that induce melanin production (induced, n=3) (Kim, Y. C. et al., Drug Deliv Transl Res, doi:10.1007/s13346-021-00987-6 (2021)).

| Molecule | time for the average ΔIOP to return to baseline [1] [days] | peak reduction in IOP from baseline (ΔIOP) ([1]; at 2 days, n=5) [mmHg] | cell uptake (intracellular peptide concentration) (ARPE-19 cells; non-induced ARPE-19 cells) [pmol/100K cells] | cell uptake (intracellular peptide concentration) (ARPE-19 cells; induced (melanin-producing) ARPE-19 cells) [pmol/100K cells] |
| --- | --- | --- | --- | --- |
| Brc1c(NC2=NCCN2)ccc2nccnc12 [brimonidine] | 8 | −2.6±1.65 | – | – |
| FSGKRRKRKPR [HR97] | – | – | 82.5±15.8 | – |
| YGRKKRRQRRR [TAT47-57] | – | – | 58.7±7.43 | 478±20.8 |
